Values of other authors, collected in patent publication US10485808B2, “Selective progesterone receptor modulators (SPRM) and stabilized estrogen level in patient” (BAYER PHARMA AKTIENGESELLSCHAFT, priority 2017, dated 2019).
Where two headings read alike, the source gives them in different places.

Test system: patients with Uterine Fibroids (UF)
Conditions: cited from earlier work; for Patients with moderate to severe hot flushes: 12-13 weeks of treatment; for Serum estradiol levels after treatment: after 12-13 weeks treatment

CC(=O)O[C@]1(C(C)=O)CC[C@H]2[C@@H]3CCC4=CC(=O)CCC4=C3[C@@H](c3ccc(N(C)C)cc3)C[C@@]21C [Ulipristal acetate]
Patients with moderate to severe hot flushes (5 mg/day): 11%
Serum estradiol levels after treatment (5 mg/day): 64 pg/mL
Amenorrhoea rate (secondary endpoint) (5 mg/day): 75%
Hot flushes of any severity (5 mg): 26%
Patients with moderate to severe hot flushes (10 mg/day): 10%
Serum estradiol levels after treatment (10 mg/day): 61 pg/mL
Amenorrhoea rate (secondary endpoint) (10 mg/day): 89%
Hot flushes of any severity (10 mg): 24%
